Measured values from patent US20150320772A1, “USE OF ACETYLSALICYLIC ACID TO PREVENT AND/OR TREAT DIABETIC WOUNDS” (LABORATOIRES URGO, priority 2012, published 2015).

Tests used:
[1] = tested on: diabetic mice (db/db); assay: Kinetics of wound closure in diabetic mice (db/db) treated topically with acetylsalicylic acid; assay type: in vivo; settings: for wound closure (time to closure): from D3 post-lesion, NaCl control diabetic mice 26 days
Excerpt: These animals are characterized by hyperglycemia, insulin resistance and hypertriglyceridemia, which makes these mice the first choice as models for diabetes of genetic origin. The mice of the “control” group for the db/db mice are heterozygous db/+mice.
(§1) The mouse is anesthetized by means of isoflurane (halogenated anesthetic gas). The dorsal part and the flanks of the mouse are shaved and disinfected and a circular excision of close to 1 cm^2 is made. The connective tissue at the interface of the muscle tissue is removed without damaging the muscle fascia. The skin is totally excised as far as the panniculus carnosus.
The wound thus created is protected by a device such as described in the patent applications filed by Laboratoires Urgo, FR 11 62295 and FR 11 62344, which enables both protection of the wound and observation and evaluation of the healing kinetics, and enables exudate to be collected.
The wound healing process is observed from 0 to 30 days post-lesion. Between 3 and 5 very high resolution standardized digital photographs are taken for each animal. The percentage wound closure is based on changes in surface area calculated for the same injury on the same mouse and for the indicated time points. Thus, the mean calculated for wound healing (as a percentage) over the 3 mice in a group is obtained independently and the statistics are calculated from 3 groups of 3 independent experiments.
as §1, with “As already described above, the mouse” for “The mouse”, “of isoflurane.” for “of isoflurane (halogenated anesthetic gas).”
In the meantime, the reference solution of acetylsalicylic acid is prepared at 5 mM. This solution will be used to prepare the solutions with concentrations of 100 μM, 200 μM, 300 μM, 1 mM, 2 mM, 2.9 mM, 4.8 mM and 5 mM.
Solutions with concentrations of 100 μM, 200 μM, 300 μM, 1 mM, 2 mM, 2.9 mM, 4.8 mM and 5 mM of acetylsalicylic acid are tested.
A volume of between 50 and 500 μl is taken off from each solution and placed in contact with the wound via a device such as described through the patent applications filed by Laboratoires Urgo, FR 11 62295 and FR 11 62344.
It is noteworthy that this placing of a predefined concentration of acetylsalicylic acid in contact with the site of healing is carried out starting from the third day post-lesion. Indeed, it is in this period that the delay in healing appears in the diabetic mice, compared to the “control” mice (FIGS. 1A and 1B). Moreover, in the context of treating diabetic patients, the treated wounds will already be formed and will be arrested in the inflammatory phase. No chronic wounds, and more particularly diabetic wounds, are treated as soon as they appear. Moreover, the inflammatory phase is an indispensable phase in healing, since it enables the damaged area to be cleaned and deterged by virtue of the infiltration of inflammatory cells such as polymorphonuclear neutrophils. It is therefore necessary to retain inflammation to initiate effective healing, and thus to not entirely block this phase. This is why treatment with acetylsalicylic acid is only proposed starting from D3 post-lesion.

[2] = tested on: diabetic mice (HFD); assay: Kinetics of cell infiltration into the wound (exudate) of diabetic mice (HFD) treated with acetylsalicylic acid; assay type: in vivo; settings: 1000 μM solution, D7 post-lesion, versus control diabetic mice
Excerpt: FIG. 7: Kinetics of cell infiltration into the wound of “control” mice and diabetic mice (HFD) treated with acetylsalicylic acid.
HFD mice are murine models for induced diabetes, produced with C57BL/6 mice of 8 weeks of age. These mice follow a high calorie (high-fat) diet for 16 weeks. […] Unlike db/db mice, the diabetic state in these animals is not of genetic origin. The mice of the “control” group for the HFD mice are mice on a standard diet, also known by the abbreviation “NC”.
The cells from the exudate are recovered from D1 post-lesion until no more exudate is secreted by the wound. In order to determine the kinetics of polymorphonuclear neutrophil infiltration, the cells from the exudate from the lesion are characterized by flow cytometry by immunolabeling relating to the membrane receptors Ly6G, 7/4 (for the polymorphonuclear cells) and F4/80 (for the macrophages). A total of 10 000 events is analyzed for each sample. All the results are given in the form of percentage expression.
FIG. 7 describes the kinetics of cell infiltration carried out on “control” diabetic mice or on those to which has been applied a solution of 1000 μM of acetylsalicylic acid.

[3] = tested on: human peripheral blood-derived monocytes differentiated into macrophages; assay: Viability of macrophages in vitro in the presence of acetylsalicylic acid (propidium iodide, flow cytometry); settings: 72 h incubation
Experimental: Moreover, cell viability tests are carried out on macrophages for various concentrations of acetylsalicylic acid (FIG. 6).
This method of analysis comprises the use of human peripheral blood-derived monocytes placed in culture in RPMI medium, to which is added M-CSF at 10 ng/ml, for 24 hours in order to differentiate them into macrophages. Acetylsalicylic acid is added to the culture medium in a final concentration of 1000 μM or 5000 μM.
Cell mortality is analyzed, after 72 hours of incubation, by flow cytometry by measuring the cytoplasmic incorporation of propidium iodide.
The aim of such a cell viability test carried out in vitro is to verify the harmfulness of the dose administered to the cells found in the wound, and preferably in the present case to macrophages, which are considered to be a type of effector cell in the healing of the lesion being studied.

SMILES: CC(=O)Oc1ccccc1C(=O)O [acetylsalicylic acid]
- effect on the healing kinetics compared with control diabetic mice ([1]; 100 μM solution, topical): No effect whatsoever
- wound closure (time to closure) ([1]; 300 μM solution, topical): around twenty
- resolution of inflammation compared to control diabetic mice ([1]; 300 μM, 1000 μM and 2000 μM solutions, topical, early phase D3 to D7 post-lesion): very clear acceleration of resolution of inflammation
- wound closure (time to closure) ([1]; 1000 μM solution, topical): around twenty
- effect on the healing kinetics compared with control diabetic mice ([1]; 5000 μM solution, topical): No effect whatsoever
- speed of wound closure (overall conclusion) ([1]; concentration of between 100 μM and 4800 μM, administered from D3 post-lesion): increased speed of wound closure
- number of cells infiltrating the site of the lesion [2]: significant reduction
- cell toxicity ([3]; 1000 μM): no cell toxicity
- reduction of cell viability ([3]; 5000 μM): 20%
